# Experimental data taken from patent US12583851B2, “Heteroaryl-substituted pyrazine derivatives as pesticides” (Elanco Animal Health GmbH, priority 2019, dated 2026).
# What was measured:
# Format in all cases: in vivo
# [1] = system: larvae of the banded cucumber beetle (Diabrotica balteata); test: Diabrotica balteata spray test; settings: 168 h, after 7 days, read-out: efficacy (seedling growth); for pest or weed control at 6.4 µg/disc, 20 g/ha: 20 g/ha (=6.4 μg/well); for pest or weed control at 32 µg/disc, 100 g/ha: 100 g/ha (=32 μg/well)
# Method: Diabrotica balteata—Spray Test
# Solvent: 78.0 parts by weight of acetone • • 1.5 parts by weight of dimethylformamide
# (§1) Emulsifier: alkylarylpolyglycol ether
# (§2) To produce a suitable preparation of active compound, 1 part by weight of active compound is mixed with the stated amount of solvent, and the concentrate is diluted with water, containing an emulsifier concentration of 1000 ppm, to the desired concentration. Further test concentrations are prepared by dilution with emulsifier containing water.
# Soaked wheat seeds (Triticum aestivum) are placed in a multiple well plate filled with agar and some water and are incubated for 1 day to germinate (5 seeds per well). The germinated wheat seeds are sprayed with a test solution containing the desired concentration of the active ingredient. Afterwards each unit is infected with 10-20 larvae of the banded cucumber beetle (Diabrotica balteata).
# After 7 days efficacy in % is determined. 100% means all the seedlings have grown up like in the untreated, uninfected control; 0% means none of the seedlings have grown.
# [2] = system: fall armyworm larvae (Spodoptera frugiperda); test: Spodoptera frugiperda spray test; settings: 168 h, maize leaf sections, after 7 days
# Method: Spodoptera fruaiperda—Spray Test
# Solvent: 78.0 parts by weight acetone • 1.5 parts by weight dimethylformamide
# as §1
# as §2, with “solvents” for “solvent,”, “and” for “and the concentrate”
# Maize (Zea mays) leaf sections are sprayed with a preparation of the active ingredient of the desired concentration. Once dry, the leaf sections are infested with fall armyworm larvae (Spodoptera frugiperda).
# After 7 days mortality in % is determined. 100% means all caterpillars have been killed and 0% means none of the caterpillars have been killed.
# [3] = system: Rhipicephalus (Boophilus) microplus larvae (strain Parkhurst, resistant against synthetic pyrethroids); test: Rhipicephalus (Boophilus) microplus in-vitro contact test, larval cattle tick; settings: after 48 hours, read-out: efficacy (larvae dead or moribund); for pest or weed control at 1 µg/cm2, 100 g/ha: 1 μg/cm^2 (=100 g/ha); for pest or weed control at 5 µg/cm2, 500 g/ha: 5 μg/cm^2 (=500 g/ha)
# Method: Rhipicephalus (Boophilus) microplus—In-Vitro Contact Tests Larval Cattle Tick (Strain Parkhurst, Resistant Against Synthetic Pyrethroids)
# 9 mg compound is solved in 1 mL acetone and diluted with acetone to the desired concentration. […] the test solution is filled in 25 mL glass test tubes and homogeneously distributed on the inner walls by rotation and tilting on a shaking device (2 h at 30 rpm). With a compound concentration of 900 ppm, an inner surface of 44.7 cm^2 and a homogeneous distribution, a dose of 5 μg/cm^2 is achieved.
# After the solvent has evaporated, each test tube is filled with 20-50 cattle tick larvae (Rhipicephalus microplus), closed with a perforated lid and incubated in a horizontal position at 85% relative humidity and 27° C. in an incubator. After 48 hours efficacy is determined. The larvae are patted on the ground of the tubes and negative geotactic behaviour is recorded.
# An efficacy of 100% means all larvae are dead or moribund; 0% means no larvae are dead or moribund.
SMILES,"pest or weed control at 6.4 µg/disc, 20 g/ha [1] [%]","pest or weed control at 32 µg/disc, 100 g/ha [1] [%]",mortality at 100 g/ha [2] [%],"pest or weed control at 1 µg/cm2, 100 g/ha [3] [%]","pest or weed control at 5 µg/cm2, 500 g/ha [3] [%]"
CC(NC(=O)c1cc(Br)cc(OC(F)(F)F)c1)c1nccnc1-c1ccc(Cl)cn1 (centres unmarked) [Example I-22],100,100,100,,
"Cc1cnc(C(C)NC(=O)c2cc(C(F)(F)F)cc(C(F)(F)F)c2)c(-c2ncc(C(=O)N(C)CC3CC3)s2)n1 (racemic) [Example I-125, (rac)-2-(3-{1-[3,5-Bis(trifluoromethyl)benzamido]ethyl}-6-methylpyrazin-2-yl)-N-(cyclopropylmethyl)-N-methyl-1,3-thiazole-5-carboxamide]",,,100,100,100
"CC(NC(=O)c1cc(Br)cc(Br)c1)c1nccnc1-n1cc(C#N)cn1 (racemic) [Example I-106, (rac)-3,5-Dibromo-N-{1-[3-(4-cyano-1H-pyrazol-1-yl)pyrazin-2-yl]ethyl}benzamide]",100,100,100,,
"CCN(C)C(=O)c1ccc(-c2nccnc2C(C)NC(=O)c2cc(Cl)cc(OC(F)(F)F)c2)nc1 (racemic) [Example I-36, (rac)-6-(3-{1-[3-Chloro-5-(trifluoromethoxy)benzamido]ethyl}pyrazin-2-yl)-N-ethyl-N-methylpyridine-3-carboxamide]",,100,100,,
"CC(NC(=O)c1cc(OC(F)F)cc(C2CC2)c1)c1nccnc1-c1ncc(C(=O)N(C)CC#N)s1 (racemic) [Example I-142, (rac)-N-(Cyanomethyl)-2-(3-{1-[3-cyclopropyl-5-(difluoromethoxy)benzamido]ethyl}pyrazin-2-yl)-N-methyl-1,3-thiazole-5-carboxamide]",,100,100,,
"CC(NC(=O)c1cc(Cl)cc(S(=O)(=O)c2ccc(F)cc2)c1)c1nccnc1-n1cc(C#N)cn1 (racemic) [Example I-128, (rac)-3-Chloro-N-{1-[3-(4-cyano-1H-pyrazol-1-yl)pyrazin-2-yl]ethyl}-5-(4-fluorobenzene-1-sulfonyl)benzamide]",,,100,90,80
"CC(NC(=O)c1cc(Br)cc(OC(F)(F)F)c1)c1nccnc1-n1cc(C(=O)N(C)C(C)C)cn1 (racemic) [Example I-137, (rac)-1-(3-{1-[3-Bromo-5-(trifluoromethoxy)benzamido]ethyl}pyrazin-2-yl)-N-methyl-N-(propan-2-yl)-1H-pyrazole-4-carboxamide]",,,100,100,100
"CC(NC(=O)c1cc(C(F)(F)F)cc(C(F)(F)F)c1)c1nccnc1-c1ncc(C(=O)N(C)CC#N)s1 (racemic) [Example I-67, (rac)-2-(3-{1-[3,5-Bis(trifluoromethyl)benzamido]ethyl}pyrazin-2-yl)-N-(cyanomethyl)-N-methyl-1,3-thiazole-5-carboxamide]",,100,100,,
"CC(NC(=O)c1cc(Br)cc(C#N)c1)c1nccnc1-n1cc(Cl)cn1 (racemic) [Example I-98, (rac)-3-Bromo-N-{1-[3-(4-chloro-1H-pyrazol-1-yl)pyrazin-2-yl]ethyl}-5-cyanobenzamide]",100,100,100,,
"CC(NC(=O)c1cc(C(F)(F)F)cc(C(F)(F)F)c1)c1nccnc1-c1ncc(C(=O)N2CCOCC2)s1 (racemic) [Example I-58, (rac)-N-[1-{3-[5-(Morpholine-4-carbonyl)-1,3-thiazol-2-yl]pyrazin-2-yl}ethyl]-3,5-bis(trifluoromethyl)benzamide]",,,100,100,90
"CC(NC(=O)c1cc(C(F)(F)F)cc(C(F)(F)F)c1)c1nccnc1-n1cc(C(=O)N(C)C(C)C)cn1 (racemic) [Example I-136, (rac)-1-(3-{1-[3,5-Bis(trifluoromethyl)benzamido]ethyl}pyrazin-2-yl)-N-methyl-N-(propan-2-yl)-1H-pyrazole-4-carboxamide]",,,100,100,100
"CCS(=O)(=O)c1cc(Cl)cc(C(=O)NC(C)c2nccnc2-n2cc(C#N)cn2)c1 (racemic) [Example I-122, (rac)-3-Chloro-N-{1-[3-(4-cyano-1-pyrazol-1-yl)pyrazin-2-yl]ethyl}-5-(ethanesulfonyl)benzamide]",,,100,90,
"CC(NC(=O)c1cc(Cl)cc(C(F)(F)F)c1)c1nccnc1-n1cc(C#N)cn1 (racemic) [Example I-105, (rac)-3-Chloro-N-{1-[3-(4-cyano-1H-pyrazol-1-yl)pyrazin-2-yl]ethyl}-5-(trifluoromethyl)benzamide]",,100,100,,
"CCN(C)C(=O)c1cnc(-c2ncc(C)nc2C(C)NC(=O)c2cc(C(F)(F)F)nc(C(F)(F)F)c2)s1 (racemic) [Example I-151, (rac)-N-[1-(3-{5-[Ethyl(methyl)carbamoyl]-1,3-thiazol-2-yl)-6-methylpyrazin-2-yl)ethyl]-2,6-bis(trifluoromethyl)pyridine-4-carboxamide]",,,100,,
"CCN(C)C(=O)c1cnc(-c2nc(C)cnc2C(C)NC(=O)c2cc(C(F)(F)F)cc(C(F)(F)F)c2)s1 (stereo in doubt) [Example I-157, (+)-2-(3-{(1S)-1-[3,5-bis(trifluoromethyl)benzamido]ethyl}-6-methylpyrazin-2-yl)-N-ethyl-N-methyl-1,3-thiazole-5-carboxamide]",,,100,,
"CC(NC(=O)c1cc(Cl)cc(S(C)(=O)=O)c1)c1nccnc1-c1ncc(C(=O)N(C)CC#N)s1 (racemic) [Example I-77, (rac)-2-(3-{1-[3-Chloro-5-(methanesulfonyl)benzamido]ethyl}pyrazin-2-yl)-N-(cyanomethyl)-N-methyl-1,3-thiazole-5-carboxamide]",,100,100,,
"CCN(C)C(=O)c1cnc(-c2ncc(C)nc2[C@H](C)NC(=O)c2cc(C(F)(F)F)nc(C(F)(F)F)c2)s1 [Example I-159, (+)-N-[(1S)-1-(3-(5-[ethyl(methyl)carbamoyl]-1,3-thiazol-2-yl)-6-methylpyrazin-2-yl)ethyl]-2,6-bis(trifluoromethyl)pyridine-4-carboxamide]",,,100,,
"CCN(C)C(=O)c1cnc(-c2nc(C)cnc2C(C)NC(=O)c2cc(C(F)(F)F)cc(C(F)(F)F)c2)s1 (racemic) [Example I-152, (rac)-2-(3-{1-[3,5-Bis(trifluoromethyl)benzamido]ethyl}-6-methylpyrazin-2-yl)-N-ethyl-N-methyl-1,3-thiazole-5-carboxamide]",100,100,100,,
"CC(NC(=O)c1cc(Cl)cc(OC(F)(F)F)c1)c1nccnc1-c1ccc(C(F)(F)F)cn1 (racemic) [Example I-47, (rac)-3-Chloro-5-(trifluoromethoxy)-N-[1-{3-[5-(trifluoromethyl)pyridin-2-yl]pyrazin-2-yl}ethyl]benzamide]",,,100,,
"CC(NC(=O)c1cc(C#N)cc(C(F)(F)F)c1)c1nccnc1-c1ccc(C(F)(F)F)cn1 (racemic) [Example I-41, (rac)-3-Cyano-5-(trifluoromethyl)-N-[1-{3-[5-(trifluoromethyl)pyridin-2-yl]pyrazin-2-yl}ethyl]benzamide]",100,,83,,
"CC(NC(=O)c1cc(C(F)(F)F)cc(C(F)(F)F)c1)c1nccnc1-c1ccc(C(=O)N(C)CC#N)cn1 (racemic) [Example I-39, (rac)-6-(3-{1-[3,5-Bis(trifluoromethyl)benzamido]ethyl}pyrazin-2-yl)-N-(cyanomethyl)-N-methylpyridine-3-carboxamide]",,100,100,,
